How the values were obtained:
[1] = molecular target: T1, Cyclooxygenase-1 from Ram Seminal Vesicle Microsomes (RSVM) (Ovis aries, UniProt P05979); test: Inhibitory activity on cyclooxygenase-1 from ram seminal vesicle microsomes (PGE2 ELISA); type: biochemical; conditions: PGE2 formation, read-out: Inhibitory Effect on COX-1[IC50(μM)]
T1 construct: ram seminal vesicles were homogenised by a blender; from tissue; host or cells: ram seminal vesicles (microsomes)
T1 sequence (P05979 25-600): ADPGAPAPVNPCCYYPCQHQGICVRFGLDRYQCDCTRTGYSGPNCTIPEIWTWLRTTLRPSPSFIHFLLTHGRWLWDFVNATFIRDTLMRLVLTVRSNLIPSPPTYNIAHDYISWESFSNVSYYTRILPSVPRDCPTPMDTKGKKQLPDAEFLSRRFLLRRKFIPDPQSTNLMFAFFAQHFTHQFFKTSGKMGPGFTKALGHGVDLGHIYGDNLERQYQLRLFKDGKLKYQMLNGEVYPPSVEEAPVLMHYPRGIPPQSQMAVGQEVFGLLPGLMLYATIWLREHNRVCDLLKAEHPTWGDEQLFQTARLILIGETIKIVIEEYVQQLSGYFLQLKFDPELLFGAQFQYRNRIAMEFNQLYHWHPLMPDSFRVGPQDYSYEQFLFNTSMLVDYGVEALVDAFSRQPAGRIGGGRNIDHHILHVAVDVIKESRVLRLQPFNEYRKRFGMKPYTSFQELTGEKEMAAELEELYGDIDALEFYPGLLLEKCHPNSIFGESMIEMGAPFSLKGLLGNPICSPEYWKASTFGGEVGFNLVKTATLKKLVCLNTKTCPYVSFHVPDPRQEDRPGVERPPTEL
Protocol: (§1) In order to prepare cyclooxygenase-1 (COX-1) microsomes, ram seminal vesicles were homogenised by a blender. To prepare cyclooxygenase-2 (COX-2) microsomes, an expression vector which contains the human COX-2 gene was introduced into COS cells. The cells were homogenised by sonication after 66 hours cultivation. Microsomes were then prepared in accordance with conventional methods. Enzyme activity was assayed as follows. The assay mixture contained 10 μl of COX-1 or COX-2 microsomes (5 to 15 μg), 2 μl of sample dissolved in dimethyl sulfoxide, 50 μl of 200 mM Tris (pH 7.6), 10 μl of 20 mM reduced glutathione, 10 μl of 10 mM epinephrine, and 15.5 μl of distilled water. After preincubation at 37° C. for 15 minutes, 2.5 μl of 10 μM arachidonic acid (dissolved in ethanol) were then added to the mixture (final volume of 100 μl) and allowed to react at 37° C. for 30 minutes. The final dimethyl sulfoxide and ethanol concentrations were 2% and 2.5%, respectively. To the reaction mixture were then added 15 μl of ice-cooled 0.2M HCl to stop the reaction, and the mixture was cooled at 4° C. for 5 minutes. 15 μl of a 0.2M aqueous solution of sodium hydroxide were then added to the reaction mixture to neutralise the pH. The amount of PGE2, in the reaction mixture was measured using a commercially available ELISA kit (Cayman). IC50 was calculated from the regression line determined by the inhibition rates of PGE2 formation and the concentrations of the compound.

[2] = molecular target: T2, Human Recombinant Cyclooxygenase-2 (Homo sapiens, UniProt P35354); test: Inhibitory activity on human recombinant cyclooxygenase-2 microsomes from COS cells (PGE2 ELISA); type: biochemical; conditions: for IC50: human recombinant COX-2 microsomes, PGE2 formation, read-out: Inhibitory Effect on COX-2 [IC50 (μM)]
T2 construct: made in house; host or cells: COS cells (transient expression; microsomes prepared after 66 hours)
T2 sequence (P35354 18-604): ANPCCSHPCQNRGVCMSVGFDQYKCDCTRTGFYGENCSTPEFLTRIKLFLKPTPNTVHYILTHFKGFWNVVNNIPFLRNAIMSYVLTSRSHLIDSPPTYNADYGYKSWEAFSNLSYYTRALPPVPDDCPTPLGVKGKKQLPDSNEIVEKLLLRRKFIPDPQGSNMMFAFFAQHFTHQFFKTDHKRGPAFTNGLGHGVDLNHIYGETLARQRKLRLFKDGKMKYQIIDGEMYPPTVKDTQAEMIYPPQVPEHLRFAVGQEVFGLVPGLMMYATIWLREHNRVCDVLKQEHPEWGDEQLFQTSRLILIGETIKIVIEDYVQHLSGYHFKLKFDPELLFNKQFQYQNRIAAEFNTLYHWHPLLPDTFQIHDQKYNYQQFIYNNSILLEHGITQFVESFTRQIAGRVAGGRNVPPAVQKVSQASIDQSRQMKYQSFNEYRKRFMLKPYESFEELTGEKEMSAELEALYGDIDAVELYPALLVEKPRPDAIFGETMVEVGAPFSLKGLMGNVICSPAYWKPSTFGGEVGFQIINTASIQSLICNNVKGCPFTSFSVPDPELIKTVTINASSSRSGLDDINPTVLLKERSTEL
Protocol: In order to prepare cyclooxygenase-1 (COX-1) microsomes, ram seminal vesicles were homogenised by a blender. To prepare cyclooxygenase-2 (COX-2) microsomes, an expression vector which contains the human COX-2 gene was introduced into COS cells. The cells were homogenised by sonication after 66 hours cultivation. Microsomes were then prepared in accordance with conventional methods.
Enzyme activity was assayed as follows.
as §1, with “The” for “In order to prepare cyclooxygenase-1 (COX-1) microsomes, ram seminal vesicles were homogenised by a blender. To prepare cyclooxygenase-2 (COX-2) microsomes, an expression vector which contains the human COX-2 gene was introduced into COS cells. The cells were homogenised by sonication after 66 hours cultivation. Microsomes were then prepared in accordance with conventional methods. Enzyme activity was assayed as follows. The”

[3] = tested on: Carrageenan-induced Paw Edema in rats; test: Carrageenan-induced paw edema test; type: in vivo, Wistar-Imamichi rats; conditions: Rattus norvegicus, oral, 3 hours after carrageenan, read-out: Inhibition Rate (%)
Method in brief: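 Male Wistar-Imamichi rats (6 weeks, 110-120 g), fasted 16 h, dosed orally 30 min before subplantar injection of 1% carrageenan into right hind paw. Paw volume measured by plethysmometer before dosing and 3 h after carrageenan; edema intensity = (volume at 3 h/volume before injection) − 1.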

| SMILES | IC50 [1] [µM] | IC50 [2] [µM] | inhibition in vivo at 50 mg/kg [3] [%] | Selectivity (COX-1/COX-2) ([2]; ratio of IC50 COX-1/COX-2) |
| --- | --- | --- | --- | --- |
| Cc1ccc(-c2ccccc2)n1-c1ccc(S(N)(=O)=O)cc1 [Compound A, 5-methyl-2-phenyl-1-(4-sulfamoylphenyl)pyrrole, reference compound] | > 100 | > 100 | 14 | – |
| COc1ccc(-c2cc(C)cn2-c2ccc(S(N)(=O)=O)cc2)cc1 [Example 52, 2-(4-Methoxyphenyl)-4-methyl-1-(4-sulfamoylphenyl)pyrrole] | > 100 | 0.016 | 65 | >6250 |

From patent USRE39420E1, “1,2-Diphenylpyrrole derivatives, their preparation and their therapeutic uses” (Sankyo Company, Limited, priority 1996, dated 2006)
